Our source for the TGI and GI50 values is PubChem BioAssay (NCI).

Holding throughout (assay): growth of human tumour cells (NCI), 48 h
The test system of test [1] is UO-31 renal.
Test [2] has as its system COLO 205 colon.
Test [3] has as its system SR leukemia.
The test system of test [4] is LOX IMVI melanoma.
Test [5] has as its system EKVX NSCLC.
The test system of test [6] is SF-268 CNS.
Test [7] deals with KM12 colon.
Test [8] concerns SNB-19 CNS.
For test [9], the system named is MDA-MB-231 breast.
The test system of test [10] is MDA-MB-435.

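Protocol summary: plate cells (96-well), add compound at 5 concentrations, incubate 48 h, interpolate endpoints linearly. GI50 is the concentration that inhibits growth by half. TGI denotes the concentration required for complete inhibition of growth.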 Where only a bound is given, the exact number is not on record here.

On to `COC(=O)C1CCC2(CC1)NC(=O)NC2=O` (configuration not stated), for which the TGI in test [1], in [2], in test [3], in test [4], in [5] and in [6] was over 100 µM in each case. Besides, the TGI in test [7] and in test [8] was over 100 µM in each case.
Regarding `NCCN.O=N[O-].O=N[O-].O=N[O-].O=N[O-].[Co+3].[K+]`, the GI50 in [1], in test [2], in test [4], in [5], in test [6] and in test [7] was over 100 µM each time. In addition, in [8], the GI50 was over 100 µM. Further, the TGI in test [1], in [2], in test [4], in test [5], in test [6] and in test [7] was over 100 µM in each case. In [8], this molecule came in with a TGI of over 100 µM.
Turning to `CC(=O)OC12CCCCC1C1(CCCC1)NC2=O` (configuration not stated), the TGI in test [1], in test [3], in [4], in [5], in [6] and in [7] was over 100 µM throughout. For the same molecule, the TGI in [8] is over 100 µM.
Take `CCOc1ccccc1Nc1nc(C)c(C(=O)CC(=O)C(=O)Nc2ccccc2)s1`: the TGI in [1], in test [2], in test [3], in [4], in test [5] and in test [6] was over 100 µM each time. The TGI in test [7] and in [8] was over 100 µM each time.
With `CC(=O)/C=C\C(=O)NNS(=O)(=O)c1ccc(C)cc1`, the TGI in [1], in test [2], in test [3], in test [4], in [5] and in test [6] was over 100 µM throughout. Further, the TGI in test [7] and in [8] was over 100 µM in each case.
Turning to `Cc1nn(C(=O)CC(=O)Nc2ccccc2Cl)c(C)c1N=Nc1ccccc1Cl`, the TGI in [1], in test [2], in test [3], in test [4], in test [5] and in test [6] was over 100 µM throughout. For the same molecule, the TGI in test [7] and in [8] was over 100 µM each time.
Turning to `COc1cc(C2C(C(=O)Nc3ccc(Cl)c(Cl)c3)=C(C)NC(C)=C2C(=O)Nc2ccc(Cl)c(Cl)c2)ccc1O`, the TGI in [1] amounted to 25.6 µM; in test [2], 30.2 µM; in test [4] it was 33.9 µM; in [5] it was 28.1 µM; in test [6], 30.8 µM; in [7], 27 µM. The same molecule came in with a TGI in [8] of 25.6 µM.
With `O=C1[C@@H]2C3C=CC([C@H]4C(=O)N(CO)C(=O)[C@@H]34)[C@@H]2C(=O)N1CO`, the TGI in [1] was over 100 µM; in test [2], over 77.8 µM; in test [4], over 61 µM; in [5], over 100 µM; in test [6], over 77.7 µM; in [7] it was over 100 µM. This molecule also yielded a TGI in test [8] of over 100 µM.
Turning to `O=C1c2ccccc2CC1C1(O)C(=O)Nc2c(Cl)cc(Cl)cc21` (configuration not stated), the TGI in [1], in test [2], in test [4], in test [5], in test [6] and in test [7] was over 100 µM in each case. Moreover, the TGI in test [8] is over 100 µM.
`Nc1n[nH]c(=O)c2c1c(Br)cn2C1OC(CO)C(O)C1O` (configuration not stated): the TGI in test [1] came to 26.8 µM; in test [2], 28.1 µM; in test [3], 14.3 µM; in [4], 15.3 µM; in [5], 39.5 µM; in test [6], 55.4 µM. Further, the TGI in test [7] and in test [8] was over 100 µM throughout.
`COc1ccc(/C=C(\NC(=O)c2ccccc2)c2nc3ccccc3[nH]2)cc1`: the TGI in test [1] was 74.5 µM; in test [2], 75.8 µM; in test [3], 89.8 µM; in [5], over 100 µM; in test [6] it was over 100 µM; in [7], over 100 µM. Further, the TGI in [8] was over 100 µM.
In the case of `COc1cc2c(c(OC)c1OC)-c1c(c3ccc([N+](=O)[O-])cc3c(=O)n1CCCN=[N+]=[N-])C2=O`, the GI50 in test [1] was 4.92 µM; in test [9], 19.1 µM; in test [2], over 100 µM; in test [4], 28.5 µM; in test [5], over 100 µM; in test [10], over 100 µM. The GI50 in [6] is 14.4 µM; in test [7] it was over 100 µM; in [8], 29.7 µM. In addition, the TGI was 72.5 µM in test [1]; 56.3 µM in test [9]; over 100 µM in [2]; over 100 µM in test [4]; over 100 µM in [5]; over 100 µM in [10]. The TGI in test [6] was 80.7 µM; in [7], over 100 µM; in [8] it was 98.3 µM.
For the molecule `O=S(O)CCCSSCCCCSSCCCS(=O)O`, the TGI in test [1], in test [2], in test [4], in test [5], in [6] and in test [7] was over 100 µM each time. Moreover, in test [8], the TGI is over 100 µM.
As for `COc1ccc(C(=O)CC(Cl)=C(Cl)Cl)cc1`, the GI50 is 25.8 µM in [1]; 33.1 µM in test [9]; 25.6 µM in test [2]; 19.2 µM in test [4]; 28.5 µM in test [5]; 24.8 µM in test [10]. Also, the results for the GI50 in test [6], in test [7] and in test [8] were 38.2 µM, 71.2 µM and 32.4 µM, respectively. Also, the TGI in test [1] was 54.7 µM; in [9], over 100 µM; in test [2], 61.5 µM; in [4], 43.4 µM; in test [5], over 100 µM; in test [10], 62.7 µM. Besides, the TGI in [6], in test [7] and in test [8] was over 100 µM throughout.
